In patent publication US12291518B2, “Thyroid hormone receptor agonists and use thereof” (Eccogene Inc., priority 2020, dated 2025):
Where two headings read alike, the source gives them in different places.

Columns and labels:
THR alpha-LBD = biological target: T1, THR alpha-LBD (Homo sapiens, UniProt P10827); assay: THR-α Coactivator Peptide Recruitment Assay (LanthaScreen TR-FRET); assay type: biochemical
T1 construct: except that THR alpha-LBD of a final concentration 0.25 nM was used; purchased Invitrogen PV4687
Method: (§1) A time-resolved FRET (TR-FRET) assay was used to test representative compounds of the application.
(§2) THR-β Coactivator Peptide Recruitment Assay were conducted by using Invitrogen's LanthaScreen™ TR-FRET Thyroid Receptor beta Assay Kit (Catalog no. PV4686). Binding of an agonist to the nuclear receptor causes a subsequent binding of a coactivator peptide, resulting in fluorescence energy transfer from the labelled nuclear receptor to the proximal coactivator peptide, which reflects the binding affinity of the agonist and the nuclear receptor. The assay was conducted by following the manufacturer's instructions. Briefly, THR beta-LBD (the final concentration is 0.5 nM) was added to the 384-well assay plate containing test compounds, followed by addition of Fluorescein-SRC2-2 coactivator peptide and terbium (Tb)-labeled anti-GST antibody. The final concentration of THR beta-LBD, Fluorescein-SRC2-2 coactivator peptide and terbium (Tb)-labeled anti-GST antibody is 0.5 nM, 0.1 nM and 2 nM, respectively. After a gentle mix and incubation at room temperature for 2 h, the signal was read on the EnVision Multilabel Plate Reader at wavelengths of 520 nm and 495 nm. TR-FRET ratio was calculated by dividing the emission signal at 520 nm and the emission signal at 495 nm, and then was plotted against a sigmoidal dose response curve (four parameters, GraphPad™ Prism 8) to determine the EC50 value.
THR-α Coactivator Peptide Recruitment Assay were conducted by using Invitrogen's LanthaScreen™ TR-FRET Thyroid Receptor alpha Assay Kit (Catalog no. PV4687), following the same method described above except that THR alpha-LBD of a final concentration 0.25 nM was used.

THR beta-LBD = biological target: T2, THR beta-LBD (Homo sapiens, UniProt P10828); assay: THR-β Coactivator Peptide Recruitment Assay (LanthaScreen TR-FRET); assay type: biochemical
T2 construct: THR beta-LBD (the final concentration is 0.5 nM) was added to the 384-well assay plate; purchased Invitrogen PV4686
T2 sequence (P10828 217-461 limits assumed): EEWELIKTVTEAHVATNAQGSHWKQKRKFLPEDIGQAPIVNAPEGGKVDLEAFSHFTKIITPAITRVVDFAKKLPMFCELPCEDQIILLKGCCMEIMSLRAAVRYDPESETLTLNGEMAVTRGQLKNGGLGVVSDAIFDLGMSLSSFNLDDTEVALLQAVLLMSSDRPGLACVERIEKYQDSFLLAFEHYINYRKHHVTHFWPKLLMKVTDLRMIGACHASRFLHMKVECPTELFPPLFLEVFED
Method: as §1, §2

[1] = TR-FRET coactivator recruitment, THR alpha-LBD 0.25 nM
[2] = TR-FRET coactivator recruitment, THR alpha-LBD 0.25 nM, read-out: THRα EC50
[3] = TR-FRET coactivator recruitment, THR beta-LBD 0.5 nM
[4] = TR-FRET coactivator recruitment, THR beta-LBD 0.5 nM, read-out: THRβ EC50

T1 sequence (P10827 163-410 isoform P10827-2 limits assumed, other chains not shown): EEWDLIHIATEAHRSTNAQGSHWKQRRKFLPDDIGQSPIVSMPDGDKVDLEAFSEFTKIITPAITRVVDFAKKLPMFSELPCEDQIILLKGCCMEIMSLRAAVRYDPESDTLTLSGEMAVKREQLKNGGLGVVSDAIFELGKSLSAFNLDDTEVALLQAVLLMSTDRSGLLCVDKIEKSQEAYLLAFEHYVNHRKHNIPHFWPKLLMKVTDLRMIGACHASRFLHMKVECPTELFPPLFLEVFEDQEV

SMILES | THRα Emax (THR alpha-LBD; [1]) | EC50 (THR alpha-LBD; [2]) [nM] | THRβ Emax (THR beta-LBD; [3]) | EC50 (THR beta-LBD; [4]) [nM] | EC50 (THR alpha-LBD) [nM] | EC50 (THR beta-LBD) [nM]
O=c1[nH]c(=O)n(-c2cc(Cl)c(Oc3ccc(O)c(S(=O)(=O)N4CCC(O)CC4)c3)c(Cl)c2)nc1C(F)F [Compound 16, 2-(3,5-dichloro-4-(4-hydroxy-3-((4-hydroxypiperidin-1-yl)sulfonyl)phenoxy)phenyl)-6-(difluoromethyl)-1,2,4-triazine-3,5(2H,4H)-dione] | A (85~110) | 2 to 200 | B (75~90) | < 2 | – | –
O=c1[nH]c(=O)n(-c2cc(Cl)c(Oc3ccc(O)c(S(=O)(=O)N[C@H]4C[C@H](C(=O)NC5CC5)C4)c3)c(Cl)c2)nc1C(F)F [Compound 18] | B (40~85) | 200 to 1000 | B (75~90) | 2 to 20 | – | –
O=c1[nH]c(=O)n(-c2cc(Cl)c(Oc3ccc(O)c(S(=O)(=O)NC4CC4)c3)c(Cl)c2)nc1C(F)(F)F [Compound 19, N-cyclopropyl-5-[2,6-dichloro-4-[3,5-dioxo-6-(trifluoromethyl)-1,2,4-triazin-2-yl]phenoxy]-2-hydroxy-benzenesulfonamide] | A (85~110) | 2 to 200 | A (90~110) | < 2 | – | –
CNS(=O)(=O)c1cc(Oc2c(Cl)cc(-n3nc(C(F)(F)F)c(=O)[nH]c3=O)cc2Cl)ccc1O [Compound 20, 5-(2,6-dichloro-4-(3,5-dioxo-6-(trifluoromethyl)-4,5-dihydro-1,2,4-triazin-2(3H)-yl)phenoxy)-2-hydroxy-N-methylbenzenesulfonamide] | A (85~110) | 2 to 200 | A (90~110) | 2 to 20 | – | –
O=c1[nH]c(=O)n(-c2cc(Cl)c(Oc3ccc(O)c(S(=O)(=O)N4CCC(F)(F)CC4)c3)c(Cl)c2)nc1C(F)(F)F [Compound 21, 2-(3,5-dichloro-4-(3-((4,4-difluoropiperidin-1-yl)sulfonyl)-4-hydroxyphenoxy)phenyl)-6-(trifluoromethyl)-1,2,4-triazine-3,5(2H,4H)-dione] | B (40~85) | 2 to 200 | A (90~110) | 2 to 20 | – | –
CNC(=O)C1(N[S@SP3](=O)(=O)c2cc(Oc3c(Cl)cc(-n4nc(C(F)(F)F)c(=O)[nH]c4=O)cc3Cl)ccc2O)CC1 [Compound 25, 1-((5-(2,6-dichloro-4-(3,5-dioxo-6-(trifluoromethyl)-4,5-dihydro-1,2,4-triazin-2(3H)-yl)phenoxy)-2-hydroxyphenyl)sulfonamido)-N-methylcyclopropane-1-carboxamide] | C (<40) | > 1000 | B (75~90) | 20 to 100 | – | –
N#CC1CC(N[S@SP3](=O)(=O)c2cc(Oc3c(Cl)cc(-n4nc(C(F)F)c(=O)[nH]c4=O)cc3Cl)ccc2O)C1 (stereo not drawn) [Compound 26, N-(3-cyanocyclobutyl)-5-[2,6-dichloro-4-[6-(difluoromethyl)-3,5-dioxo-1,2,4-triazin-2-yl]phenoxy]-2-hydroxy-benzenesulfonamide] | A (85~110) | – | A (90~110) | – | 2 to 200 | < 2
O=C(C1CC1)N1CCN(S(=O)(=O)c2cc(Oc3c(Cl)cc(-n4nc(C(F)F)c(=O)[nH]c4=O)cc3Cl)ccc2O)CC1 [Compound 32, 2-(3,5-dichloro-4-(3-((4-(cyclopropanecarbonyl)piperazin-1-yl)sulfonyl)-4-hydroxyphenoxy)phenyl)-6-(difluoromethyl)-1,2,4-triazine-3,5(2H,4H)-dione] | C (<40) | 2 to 200 | C (<75) | 2 to 20 | – | –
CN1CCN(S(=O)(=O)c2cc(Oc3c(Cl)cc(-n4nc(C(F)F)c(=O)[nH]c4=O)cc3Cl)ccc2O)CC1=O [Compound 33, 2-(3,5-dichloro-4-(4-hydroxy-3-((4-methyl-3-oxopiperazin-1-yl)sulfonyl)phenoxy)phenyl)-6-(difluoromethyl)-1,2,4-triazine-3,5(2H,4H)-dione] | B (40~85) | 2 to 200 | C (<75) | < 2 | – | –

Second part, led by results:

THRα Emax (THR alpha-LBD; [1]) | EC50 (THR alpha-LBD; [2]) [nM] | THRβ Emax (THR beta-LBD; [3]) | EC50 (THR beta-LBD; [4]) [nM] | SMILES | EC50 (THR alpha-LBD) [nM] | EC50 (THR beta-LBD) [nM]
A (85~110) | 2 to 200 | A (90~110) | < 2 | N#CC1(NS(=O)(=O)c2cc(Oc3c(Cl)cc(-n4nc(C(F)F)c(=O)[nH]c4=O)cc3Cl)ccc2O)CC1 [Compound 17, N-(1-cyanocyclopropyl)-5-(2,6-dichloro-4-(6-(difluoromethyl)-3,5-dioxo-4,5-dihydro-1,2,4-triazin-2(3H)-yl)phenoxy)-2-hydroxybenzenesulfonamide] | – | –
B (40~85) | 200 to 1000 | B (75~90) | 2 to 20 | CNC(=O)C1(NS(=O)(=O)c2cc(Oc3c(Cl)cc(-n4nc(C(F)F)c(=O)[nH]c4=O)cc3Cl)ccc2O)CC1 [Compound 22, 1-[[5-[2,6-dichloro-4-[6-(difluoromethyl)-3,5-dioxo-1,2,4-triazin-2-yl]phenoxy]-2-hydroxy-phenyl]sulfonylamino]-N-methyl-cyclopropane carboxamide] | – | –
A (85~110) | 2 to 200 | A (90~110) | < 2 | NC(=O)C1(NS(=O)(=O)c2cc(Oc3c(Cl)cc(-n4nc(C(F)F)c(=O)[nH]c4=O)cc3Cl)ccc2O)CC1 [Compound 24, 1-[[5-[2,6-dichloro-4-[6-(difluoromethyl)-3,5-dioxo-1,2,4-triazin-2-yl]phenoxy]-2-hydroxy-phenyl]sulfonylamino]cyclopropanecarboxamide] | – | –
A (85~110) | < 2 | B (75~90) | < 2 | O=c1[nH]c(=O)n(-c2cc(Cl)c(Oc3ccc(O)c(S(=O)(=O)N4CCC(F)(F)CC4)c3)c(Cl)c2)nc1C(F)F [Compound 27, 2-[3,5-dichloro-4-[3-[(4,4-difluoro-1-piperidyl)sulfonyl]-4-hydroxy-phenoxy]phenyl]-6-(difluoromethyl)-1,2,4-triazine-3,5-dione] | – | –
A (85~110) | < 2 | B (75~90) | < 2 | O=c1[nH]c(=O)n(-c2cc(Cl)c(Oc3ccc(O)c(S(=O)(=O)N4CCC4)c3)c(Cl)c2)nc1C(F)F [Compound 28, 2-(4-(3-(azetidin-1-ylsulfonyl)-4-hydroxyphenoxy)-3,5-dichlorophenyl)-6-(difluoromethyl)-1,2,4-triazine-3,5(2H,4H)-dione] | – | –
A (85~110) | 2 to 200 | A (90~110) | < 2 | O=c1[nH]c(=O)n(-c2cc(Cl)c(Oc3ccc(O)c(S(=O)(=O)N[C@H]4CCOC4)c3)c(Cl)c2)nc1C(F)F [Compound 29, (S)-5-(2,6-dichloro-4-(6-(difluoromethyl)-3,5-dioxo-4,5-dihydro-1,2,4-triazin-2(3H)-yl)phenoxy)-2-hydroxy-N-(tetrahydrofuran-3-yl)benzenesulfonamide] | – | –
A (85~110) | < 2 | A (90~110) | < 2 | O=c1[nH]c(=O)n(-c2cc(Cl)c(Oc3ccc(O)c(S(=O)(=O)N[C@@H]4CCOC4)c3)c(Cl)c2)nc1C(F)F [Compound 30, (R)-5-(2,6-dichloro-4-(6-(difluoromethyl)-3,5-dioxo-4,5-dihydro-1,2,4-triazin-2(3H)-yl)phenoxy)-2-hydroxy-N-(tetrahydrofuran-3-yl)benzenesulfonamide] | – | –
B (40~85) | 2 to 200 | C (<75) | 2 to 20 | O=c1[nH]c(=O)n(-c2cc(Cl)c(Oc3ccc(O)c(S(=O)(=O)N4CCNCC4)c3)c(Cl)c2)nc1C(F)F [Compound 31, 2-(3,5-dichloro-4-(4-hydroxy-3-(piperazin-1-ylsulfonyl)phenoxy)phenyl)-6-(difluoromethyl)-1,2,4-triazine-3,5(2H,4H)-dione] | – | –
B (40~85) | 2 to 200 | B (75~90) | 2 to 20 | CO[C@H]1C[C@H](NS(=O)(=O)c2cc(Oc3c(Cl)cc(-n4nc(C(F)F)c(=O)[nH]c4=O)cc3Cl)ccc2O)C1 [Compound 36, 5-(2,6-dichloro-4-(6-(difluoromethyl)-3,5-dioxo-4,5-dihydro-1,2,4-triazin-2(3H)-yl)phenoxy)-2-hydroxy-N-((1r,3r)-3-methoxycyclobutyl)benzenesulfonamide] | – | –
